From US20250034169A1, “NOVEL PYRIMIDOPYRIDINE COMPOUND, PHARMACEUTICAL COMPOSITION THEREOF, AND USE THEREOF” (SUNSHINE LAKE PHARMA CO., LTD., priority 2021, published 2025)
Where two headings read alike, the source gives them in different places.

How the values were obtained:
KRAS G12D-GTP & SOS1 = KRAS G12D-GTP & SOS1 (Homo sapiens (Human), UniProt P01116, G12D); assay: KRAS G12D/SOS1 binding experiment (HTRF); settings: competitive binding
KRAS G12D-GTP & cRAF = KRAS G12D-GTP & cRAF (Homo sapiens (Human), UniProt P01116, G12D); assay: KRAS G12D/cRAF binding experiment (HTRF); settings: competitive binding
KRAS G12D-GTP & cRAF, sequence (P01116-2 other isoform, or with tags, fused parts or gaps G12D): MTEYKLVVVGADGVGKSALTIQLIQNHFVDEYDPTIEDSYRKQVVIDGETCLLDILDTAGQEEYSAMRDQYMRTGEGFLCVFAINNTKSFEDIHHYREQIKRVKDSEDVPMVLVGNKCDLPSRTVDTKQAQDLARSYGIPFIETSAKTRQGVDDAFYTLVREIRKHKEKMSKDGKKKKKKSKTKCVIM

intracellular pERK = assay: Inhibitory effect on intracellular pERK, In-Cell Western, AGS cells; assay type: cell-based; settings: Homo sapiens, read-out: Inhibitory effect on intracellular pERK, IC50
[1] = Stability in human liver microsomes; assay type: in vitro ADME; settings: human, pH 7.4; for CLHep / ER: 1 μM; for half-life at 1 μM / microsomal CLint at 1 μM: microsomes
Method: (§1) Objective: To evaluate the stability of the compounds of the present invention in human and mouse liver microsomes by LC-MS/MS.
(§2) The ratio of the sample peak area to the internal standard peak area was obtained by LC/MS/MS, and the content of the compounds at 0 min was regarded as 100%, and the relative content of the compounds at each time point was calculated. The half-life of the compound was calculated by plotting the “relative content of the compound” against the “incubation time”, and the intrinsic clearance was calculated, in which the half-life and intrinsic clearance of the compound in human and mouse liver microsomes were determined in Table 3 and Table 4, respectively.

[2] = Stability in mouse liver microsomes; assay type: in vitro ADME; settings: mouse, pH 7.4; for CLHep / CLin vivo / ER: 1 μM; for half-life at 1 μM / microsomal CLint at 1 μM: microsomes
Method: as §1, §2

[3] = AGS cells, 3 h incubation, In-Cell Western

KRAS G12D-GTP & SOS1, sequence (P01116-2 other isoform, or with tags, fused parts or gaps G12D): as above

## C#Cc1c(F)ccc2cc(O)cc(-c3nc(C#C)c4c(N5C[C@@H]6C[C@H]5CN6)nc(OC[C@@]56CCCN5C[C@H](F)C6)nc4c3F)c12 [Compound 44]
KRAS G12D-GTP & SOS1
  IC50: 0.0296 µM
KRAS G12D-GTP & cRAF
  IC50: 0.0152 µM

## C#Cc1c(F)ccc2cc(O)cc(-c3nc(C(=O)OCC)c4c(N5CC6CCC(C5)N6)nc(OC[C@@]56CCCN5C[C@H](F)C6)nc4c3F)c12 [Compound 13]
KRAS G12D-GTP & SOS1
  IC50: 0.0113 µM
KRAS G12D-GTP & cRAF
  IC50: 0.0051 µM

## C#Cc1c(F)ccc2cc(O)cc(-c3nc(C#C)c4c(N5CC6CCC(C5)N6)nc(OC[C@H]5CCCN5C)nc4c3F)c12 [Compound 50]
KRAS G12D-GTP & SOS1
  IC50: 0.0362 µM
KRAS G12D-GTP & cRAF
  IC50: 0.0191 µM

## C#Cc1c(F)ccc2cc(O)cc(-c3nc(C#CCCC(C)C)c4c(N5CC6CCC(C5)N6)nc(OC[C@@]56CCCN5C[C@H](F)C6)nc4c3F)c12 [Compound 30]
KRAS G12D-GTP & SOS1
  IC50: 0.0134 µM
KRAS G12D-GTP & cRAF
  IC50: 0.0088 µM
Intracellular pERK; [3]
  IC50: 0.0008 µM

## C#Cc1c(F)ccc2cc(O)cc(-c3nc(COC)c4c(N5CC6CCC(C5)N6)nc(OC[C@@]56CCCN5C[C@H](F)C6)nc4c3F)c12 [Compound 26]
Intracellular pERK; [3]
  IC50: 0.0004 µM

## C#Cc1nc(-c2cc(O)cc(Cl)c2C2CC2)c(F)c2nc(OC[C@@]34CCCN3C[C@H](F)C4)nc(N3CC4CCC(C3)N4)c12 [Compound 78]
KRAS G12D-GTP & SOS1
  IC50: 0.0173 µM
KRAS G12D-GTP & cRAF
  IC50: 0.0075 µM

## C#Cc1c(F)ccc2cc(O)cc(-c3nc(C#CCCCC)c4c(N5CC6CCC(C5)N6)nc(OC[C@@]56CCCN5C[C@H](F)C6)nc4c3F)c12 [Compound 39]
Intracellular pERK; [3]
  IC50: 0.0005 µM
[1]
  CLHep: 19.0 mL/min/kg
  ER: 0.48
  half-life at 1 μM: 1.52 h
  microsomal CLint at 1 μM: 15.2 µL/min/mg
[2]
  CLHep: 53.4 mL/min/kg
  CLin vivo: 33.5 mL/min/kg
  ER: 0.37
  half-life at 1 μM: 1.7 h
  microsomal CLint at 1 μM: 13.5 µL/min/mg

## C#Cc1c(F)ccc2cc(O)cc(-c3nc(C#C)c4c(N5CC6CCC(C5)N6)nc(OCC56CCCN5CCC6)nc4c3F)c12 [Compound 54]
[1]
  CLHep: 5.6 mL/min/kg
  ER: 0.21
  half-life at 1 μM: 5.2 h
  microsomal CLint at 1 μM: 4.4 µL/min/mg
[2]
  CLHep: 31.9 mL/min/kg
  CLin vivo: 23.5 mL/min/kg
  ER: 0.26
  half-life at 1 μM: 2.86 h
  microsomal CLint at 1 μM: 8.1 µL/min/mg

## C#Cc1c(F)ccc2cc(O)cc(-c3nc(OCCOC)c4c(N5CC6CCC(C5)N6)nc(OC[C@@]56CCCN5C[C@H](F)C6)nc4c3F)c12 [Compound 10]
KRAS G12D-GTP & SOS1
  IC50: 0.0139 µM
KRAS G12D-GTP & cRAF
  IC50: 0.0087 µM

## C#Cc1c(F)ccc2cccc(-c3nc(C#C)c4c(N5CC6CCC(C5)N6)nc(OC[C@@]56CCCN5C[C@H](F)C6)nc4c3F)c12 [Compound 84]
KRAS G12D-GTP & SOS1
  IC50: 0.0296 µM
KRAS G12D-GTP & cRAF
  IC50: 0.0208 µM

## C#Cc1c(F)ccc2cc(O)cc(-c3nc(OCCC(F)(F)F)c4c(N5CC6CCC(C5)N6)nc(OC[C@@]56CCCN5C[C@H](F)C6)nc4c3F)c12 [Compound 9]
KRAS G12D-GTP & SOS1
  IC50: 0.0126 µM
KRAS G12D-GTP & cRAF
  IC50: 0.0088 µM
Intracellular pERK; [3]
  IC50: 0.0006 µM

## C#Cc1c(F)ccc2cc(O)cc(-c3nc(C#C)c4c(N5CC6CCC(C5)N6)nc(OCC5(CN6CCOCC6)CC5)nc4c3F)c12 [Compound 53]
KRAS G12D-GTP & SOS1
  IC50: 0.0146 µM
KRAS G12D-GTP & cRAF
  IC50: 0.0043 µM
Intracellular pERK; [3]
  IC50: 0.0004 µM

## C#Cc1c(F)ccc2cc(O)cc(-c3nc(C#CCCC#N)c4c(N5CC6CCC(C5)N6)nc(OC[C@@]56CCCN5C[C@H](F)C6)nc4c3F)c12 [Compound 31]
KRAS G12D-GTP & SOS1
  IC50: 0.0346 µM
KRAS G12D-GTP & cRAF
  IC50: 0.0246 µM

## C#Cc1nc(-c2cc(O)cc3ccc(F)c(CC)c23)c(F)c2nc(OC[C@@]34CCCN3C[C@H](F)C4)nc(N3CC4CCC(C3)N4)c12 [Compound 65]
KRAS G12D-GTP & SOS1
  IC50: 0.0185 µM
KRAS G12D-GTP & cRAF
  IC50: 0.0099 µM
Intracellular pERK; AGS, 3 h
  IC50: 0.0004 µM

## C#Cc1c(F)ccc2cc(O)cc(-c3nc(COC)c4c(N5CC6CCC(C5)N6)nc(OC[C@@]56CCCN5C[C@H](F)C6)nc4c3F)c12 [Compound 12]
KRAS G12D-GTP & SOS1
  IC50: 0.0103 µM
KRAS G12D-GTP & cRAF
  IC50: 0.0097 µM

## C#Cc1nc(-c2cc(O)cc3cccc(F)c23)c(F)c2nc(OC[C@@]34CCCN3C[C@H](F)C4)nc(N3CC4CCC(C3)N4)c12 [Compound 68]
KRAS G12D-GTP & SOS1
  IC50: 0.0166 µM
KRAS G12D-GTP & cRAF
  IC50: 0.0065 µM
Intracellular pERK; [3]
  IC50: 0.0008 µM

## C#Cc1c(F)ccc2cc(O)cc(-c3nc(C#C)c4c(N5CC6CCC(C5)N6)nc(OCC5CCCC5)nc4c3F)c12 [Compound 56]
KRAS G12D-GTP & SOS1
  IC50: 0.0157 µM
KRAS G12D-GTP & cRAF
  IC50: 0.0185 µM

## C#Cc1c(F)ccc2cc(O)cc(-c3nc(C#C)c4c(N5CC6CCC(C5)N6)nc(OC[C@@H]5CCCN5C)nc4c3F)c12 [Compound 51]
KRAS G12D-GTP & SOS1
  IC50: 0.0208 µM
KRAS G12D-GTP & cRAF
  IC50: 0.0111 µM
Intracellular pERK; [3]
  IC50: 0.0012 µM

## C#Cc1c(F)ccc2cc(O)cc(-c3nc(C#C)c4c(N5CCN[C@@H](C)C5)nc(OC[C@@]56CCCN5C[C@H](F)C6)nc4c3F)c12 [Compound 43]
KRAS G12D-GTP & SOS1
  IC50: 0.0241 µM
KRAS G12D-GTP & cRAF
  IC50: 0.0163 µM

## C#CCOc1nc(-c2cc(O)cc3ccc(F)c(C#C)c23)c(F)c2nc(OC[C@@]34CCCN3C[C@H](F)C4)nc(N3CC4CCC(C3)N4)c12 [Compound 91]
Intracellular pERK; [3]
  IC50: 0.0003 µM

## C#Cc1c(F)ccc2cc(O)cc(-c3nc(C#C)c4c(N5CC6CCC(C5)N6)nc(OCC5(CN(C)C)CC5)nc4c3F)c12 [Compound 52]
KRAS G12D-GTP & SOS1
  IC50: 0.0152 µM
KRAS G12D-GTP & cRAF
  IC50: 0.0077 µM
Intracellular pERK; [3]
  IC50: 0.0015 µM

## C#Cc1c(F)ccc2cc(O)cc(-c3nc(C#C)c4c(N5CC6CCC(C5)N6)nc(OCCC(F)(F)F)nc4c3F)c12 [Compound 55]
KRAS G12D-GTP & SOS1
  IC50: 0.0148 µM
KRAS G12D-GTP & cRAF
  IC50: 0.0098 µM

## [2H]C([2H])([2H])c1nc(-c2cc(O)cc3ccc(F)c(C#C)c23)c(F)c2nc(OC[C@@]34CCCN3C[C@H](F)C4)nc(N3CC4CCC(C3)N4)c12 [Compound 11]
KRAS G12D-GTP & SOS1
  IC50: 0.0198 µM
KRAS G12D-GTP & cRAF
  IC50: 0.0092 µM

## C#Cc1c(F)ccc2cc(O)cc(-c3nc(C#CC4CCCC4)c4c(N5CC6CCC(C5)N6)nc(OC[C@@]56CCCN5C[C@H](F)C6)nc4c3F)c12 [Compound 28]
KRAS G12D-GTP & SOS1
  IC50: 0.0115 µM
KRAS G12D-GTP & cRAF
  IC50: 0.0111 µM

## C#Cc1c(F)ccc2cc(O)cc(-c3nc(C#CCOC)c4c(N5CC6CCC(C5)N6)nc(OC[C@@]56CCCN5C[C@H](F)C6)nc4c3F)c12 [Compound 25]
KRAS G12D-GTP & SOS1
  IC50: 0.0168 µM
KRAS G12D-GTP & cRAF
  IC50: 0.015 µM
Intracellular pERK; AGS, 3 h
  IC50: 0.0008 µM

## C#Cc1c(F)ccc2cc(O)cc(-c3nc(C#CCC)c4c(N5CC6CCC(C5)N6)nc(OC[C@@]56CCCN5C[C@H](F)C6)nc4c3F)c12 [Compound 24]
KRAS G12D-GTP & SOS1
  IC50: 0.0151 µM
KRAS G12D-GTP & cRAF
  IC50: 0.0136 µM
Intracellular pERK; AGS, 3 h
  IC50: 0.0002 µM

## C#Cc1nc(-c2cc(O)cc3ccccc23)c(F)c2nc(OC[C@@]34CCCN3C[C@H](F)C4)nc(N3CC4CCC(C3)N4)c12 [Compound 66]
KRAS G12D-GTP & SOS1
  IC50: 0.0117 µM
KRAS G12D-GTP & cRAF
  IC50: 0.0059 µM

## C#Cc1c(F)ccc2cc(O)cc(-c3nc(C#C)c4c(N5CC6CC(C5)N6)nc(OC[C@@]56CCCN5C[C@H](F)C6)nc4c3F)c12 [Compound 41]
KRAS G12D-GTP & SOS1
  IC50: 0.0314 µM
KRAS G12D-GTP & cRAF
  IC50: 0.022 µM

## C#Cc1c(F)ccc2cc(O)cc(-c3nc(C#CCC(C)C)c4c(N5CC6CCC(C5)N6)nc(OC[C@@]56CCCN5C[C@H](F)C6)nc4c3F)c12 [Compound 29]
KRAS G12D-GTP & SOS1
  IC50: 0.0159 µM
KRAS G12D-GTP & cRAF
  IC50: 0.0147 µM
Intracellular pERK; [3]
  IC50: 0.001 µM
